From patent publication US11912694B1, “2-(benzo[d]oxazol-2-yl)-N′-(2-(5-(4-chlorophenyl)-1,3,4-oxadiazol-2-ylthio)acetoxy)acetimidamide as an antimicrobial compound” (KING FAISAL UNIVERSITY, priority 2023, dated 2024)

Tests used:
[1] = tested on: Bacillus cereus; assay: Agar plate disc-diffusion, antibacterial, Bacillus cereus; format: cell-based; conditions: nutrient agar, 37° C., 48 hours
Experimental: (§1) The agar plate disc-diffusion method was applied. Sterilized filter papers (6 mm in diameter) were wetted with 10 μL of a solution of 2-(benzo[d]oxazol-2-yl)-N′-(2-(5-(4-chlorophenyl)-1,3,4-oxadiazol-2-ylthio)acetoxy)acetimidamide (3) to be tested, […], and the discs were allowed to air dry. The discs were then placed onto the surface of agar plates (nutrient agar for bacteria and Sabouraud's dextrose agar for fungi) seeded with the test organism. Each plate contained 15 mL of the agar medium, previously seeded with 0.2 mL of the broth culture of each organism pregrown for 18 hours. The plates were incubated at 37° C. for 48 hours and 72 hours for fungi. The inhibition zones were measured in mm. Discs impregnated with DMSO were used as a control, and their inhibition zone was subtracted from the tested compound's actual inhibition zone.

[2] = tested on: Staphylococcus aureus; assay: Agar plate disc-diffusion, antibacterial, Staphylococcus aureus; format: cell-based; conditions: nutrient agar, 37° C., 48 hours
Experimental: as §1

[3] = tested on: Pseudomonas aeruginosa; assay: Agar plate disc-diffusion, antibacterial, Pseudomonas aeruginosa; format: cell-based; conditions: nutrient agar, 37° C., 48 hours
Experimental: as §1

[4] = tested on: Escherichia coli; assay: Agar plate disc-diffusion, antibacterial, Escherichia coli; format: cell-based; conditions: nutrient agar, 37° C., 48 hours
Experimental: as §1

[5] = tested on: Aspergillus flavus; assay: Agar plate disc-diffusion, antifungal, Aspergillus flavus; format: cell-based; conditions: Sabouraud's dextrose agar, 37° C., 72 hours
Experimental: as §1

[6] = tested on: Chrysosporium keratinophilum; assay: Agar plate disc-diffusion, antifungal, Chrysosporium keratinophilum; format: cell-based; conditions: Sabouraud's dextrose agar, 37° C., 72 hours
Experimental: as §1

[7] = A = concentration of comp. = 10,000 μL
[8] = B = concentration of comp. = 30,000 μL
[9] = C = concentration of comp. = 50,000 μL
[10] = A = concentration of comp. = 10,000 μg/mL
[11] = A = concentration of comp. = 10 mg/mL

O=C(O)c1cn(C2CC2)c2cc(N3CCNCC3)c(F)cc2c1=O [Cip., ciprofloxacin, reference compound]
inhibition zone [1, 7]: 29 mm | inhibition zone [1, 8]: 30 mm | inhibition zone [1, 9]: 42 mm | inhibition zone [2, 7]: 43 mm | inhibition zone [2, 8]: 44 mm | inhibition zone [2, 9]: 53 mm | inhibition zone [3, 10]: 29 mm | inhibition zone [3, 8]: 30 mm | inhibition zone [3, 9]: 53 mm | inhibition zone [4, 10]: 30 mm | inhibition zone [4, 8]: 39 mm | inhibition zone [4, 9]: 60 mm | inhibition zone [5, 7]: 29 mm | inhibition zone [5, 8]: 30 mm | inhibition zone [5, 9]: 42 mm | inhibition zone [6, 11]: 29 mm | inhibition zone [6, 8]: 30 mm | inhibition zone [6, 9]: 53 mm

N/C(Cc1nc2ccccc2o1)=N\OC(=O)CSc1nnc(-c2ccc(Cl)cc2)o1 [Compound 3, 2-(benzo[d]oxazol-2-yl)-N′-(2-(5-(4-chlorophenyl)-1,3,4-oxadiazol-2-ylthio)acetoxy)acetimidamide]
inhibition zone [1, 7]: 27 mm | inhibition zone [1, 8]: 30 mm | inhibition zone [1, 9]: 41 mm | inhibition zone [2, 7]: 27 mm | inhibition zone [2, 8]: 35 mm | inhibition zone [2, 9]: 42 mm | inhibition zone [3, 10]: 24 mm | inhibition zone [3, 8]: 29 mm | inhibition zone [3, 9]: 36 mm | inhibition zone [4, 10]: 28 mm | inhibition zone [4, 8]: 37 mm | inhibition zone [4, 9]: 49 mm | inhibition zone [5, 7]: 25 mm | inhibition zone [5, 8]: 30 mm | inhibition zone [5, 9]: 41 mm | inhibition zone [6, 11]: 28 mm | inhibition zone [6, 8]: 35 mm | inhibition zone [6, 9]: 47 mm | melting point: 162 to 163 °C
